pIC50: −log10 of the molar value.

The assay concerns the target Cyclin-dependent kinase 7 (Homo sapiens, UniProt P50613). Put plainly: CDK7 Kinase Activity Assay. The protocol: Representative compounds of the present invention were assayed in vitro for CDK7 kinase-inhibitory activities using ADP-Glo platform. In detail, CDK7 kinase-inhibitory activity was measured using recombinant purified human CDK7 kinase (ThermoFisher, PV3868) and ADP Glo kinase assays kit (Promega, V9102). CDK7 kinase was diluted with 1× kinase reaction buffer (40 mM Tris-C1, pH 7.5, 20 mM MgCl2, 0.1 mg/ml BSA and 50 [M DTT) and added to 96 well plates (final concentration of CDK7 per reaction: 50 ng). The compound was finally treated to be a 1% DMSO aqueous solution, and a substrate cocktail containing ATP (final concentration of 90 [M) and 0.2 μg/μl of MBP (Myelin basic protein) in a total of 25 μl of reaction mass was added to 96 well plates, thereby initiating an enzymatic reaction. After 2 hours of incubation (30° C.), equivalent volume (25 μl per reaction) of ADP Glo was added and incubated (30° C.) at room temperature for 60 minutes. […] The kinase activity was measured by chemiluminescence method according to ADP Glo Kanease Assay Kit instruction manual, and the CDK7-inhibitory activity of the compounds according to the present invention was calculated. The result analysis of each compound was performed using Microsoft Excel, and IC50 values were calculated by Prism software.

Cyclin-dependent kinase 7, sequence (P50613 whole entry): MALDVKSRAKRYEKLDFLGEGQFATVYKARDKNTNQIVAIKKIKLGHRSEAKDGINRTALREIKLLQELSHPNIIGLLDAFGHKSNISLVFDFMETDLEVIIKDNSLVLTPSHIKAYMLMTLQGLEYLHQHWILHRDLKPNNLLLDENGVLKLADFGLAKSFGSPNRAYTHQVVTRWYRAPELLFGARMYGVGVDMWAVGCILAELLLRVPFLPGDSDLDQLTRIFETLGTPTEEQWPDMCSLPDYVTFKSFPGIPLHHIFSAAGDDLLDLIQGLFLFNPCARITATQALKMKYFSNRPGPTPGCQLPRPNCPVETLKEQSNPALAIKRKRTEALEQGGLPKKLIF

The term pIC50 denotes the negative decadic logarithm of the IC50, by convention in mol/L. Compound `C[C@H](C(=O)Nc1ncc(Cl)s1)c1cccc(-c2cnc(NC(=O)/C=C/CN3CC4CC3CO4)cn2)c1` (stereo partly specified) [US12110299, Example 94] had a negative-log IC50 (pIC50) of 7.85.

Values taken from BindingDB's records for patent US12110299 (Yungjin Pharm., 2024).
